Experimental data reported in patent US20160046616A1, “NRF2 SMALL MOLECULE INHIBITORS FOR CANCER THERAPY” (THE JOHNS HOPKINS UNIVERSITY, priority 2013, published 2016).
Like-named read-outs stand apart in the source and are kept apart here.

Key:
[1] = tested on: H1437 NRF2-ARE-Fluc stable cell line; assay: H1437 Nrf2 assay: NRF2-ARE firefly luciferase reporter gene assay; type: cell-based; conditions: read-out: Potency of inhibition, H1437
From the text: H1437 is another NSCLC cell line with LOF Keap1 activity and constitutive translocation of NRF2 into the nucleus. A firefly luciferase reporter construct driven by a minimal promoter of NRF2-specific ARE is stably expressed in the H1437 cells. This cell line was used as a confirmation assay to make sure hits identified from primary screening and that passed counterscreen assays worked in different cell types with a constitutively active NRF2 pathway (deficiency in Keap1).
This assay was very similar to the primary assay except that the cell line was changed. […] The final concentration of DMSO was maintained at 0.46%. Control compounds Budesonide and Staurosporine were both added at a concentration of 2 mM and Budesonide was also added as a 1:10 titration, starting at 200 μM, to achieve dose-response. After an 18-24 hour incubation at 37° C., 95% humidity, and 5% CO2, 1 μL of 5× CellTiter-Fluor non-lytic cell viability assay reagent (Promega, Madison Wis.) was added into the each well of the plates. The plates were then incubated for 30 minutes at room temperature before they were read on a ViewLux plate imager (Perkin Elmer, Waltham Mass.) using an excitation wavelength of 405 nm and an emission wavelength of 525 nm.
(§1) Representative compounds were assayed to assess the potency of inhibition in an A549 NRF2-ARE-Fluc stable cell line (A549 Nrf2 assay), in an H838 NRF2-ARE-Fluc stable cell line (H838 Nrf2 assay), and in an H1437 NRF2-ARE-Fluc stable cell line (H1437 Nrf2 assay) (see Table 3).

[2] = tested on: A549 NRF2-ARE-Fluc stable cell line; assay: A549 Nrf2 assay: NRF2-ARE firefly luciferase reporter gene assay; type: cell-based; conditions: read-out: Potency of inhibition, A549
From the text: A549, the parental cell line, is a non-small-cell lung cancer (NSCLC) cell line with loss-of-function (LOF) Keap1 activity, thus NRF2 transcription factor constitutively translocates into the nucleus to activate the expression of downstream target genes of NRF2. A firefly luciferase reporter (Fluc) construct driven by a minimal promoter of NRF2-specific anti-oxidant responsive element (ARE) is stably expressed in the A549 cells. Compounds that reduce the translocation of NRF2 into the nucleus or prevent the interaction between NRF2 and ARE will lead to a decrease in luciferase activity.
The final concentration of DMSO was maintained at 0.46%. Control compounds Budesonide and Staurosporine were both added at a concentration of 2 mM and Budesonide also was added as a 1:10 titration, starting at 200 μM, to achieve dose-response. After an 18-24 hour incubation at 37° C., 95% humidity, and 5% CO2, 1 μL of 5× CellTiter-Fluor non-lytic cell viability assay reagent (Promega, Madison, Wis.) was added into the each well of the plates. The plates were then incubated for 30 minutes at room temperature before they were read on a ViewLux plate imager (Perkin Elmer, Waltham, Mass.) using an excitation wavelength of 405 nm and an emission wavelength of 525 nm.
A cell based reporter assay approach was used for the identification of agents that could inhibit Nrf2 mediated gene expression (FIG. 1). A549-ARE-luciferase cells express the luciferase gene driven by a minimal promoter and an enhancer element containing an NRF2 binding site (Antioxidant Response Element, ARE).
as §1

[3] = Homo sapiens, NCI-H1437, H1437 NRF2-ARE-Fluc stable cell line

SMILES	IC50 [1, 3] [µM]	IC50 ([2]; Homo sapiens) [µM]	IC50 ([1]; H1437 NRF2-ARE-Fluc stable cell line) [µM]	IC50 [2] [µM]
Cc1ccccc1C(=O)N1CCc2cc(-c3csc(NC(=O)Cc4ccc5c(c4)OCO5)n3)ccc21 [Compound 2]	5 to 25	5 to 25	–	–
Cc1ccccc1C(=O)N1CCc2cc(-c3nc(NC(=O)Cc4ccc5c(c4)OCCO5)sc3C)ccc21 [Compound 5]	< 5	5 to 25	–	–
COc1cccc(CC(=O)Nc2nc(-c3ccc4c(c3)CCN4C(=O)c3ccccc3C)c(C)s2)c1 [Compound 6]	< 5	< 5	–	–
COc1ccc(CC(=O)Nc2nc(-c3ccc4c(c3)CCN4C(=O)c3ccccc3C)c(C)s2)cc1 [Compound 7]	< 5	< 5	–	–
Cc1ccccc1C(=O)N1CCc2cc(-c3nc(NC(=O)Cc4ccccc4)sc3C)ccc21 [Compound 8]	< 5	< 5	–	–
Cc1ccccc1C(=O)N1CCc2cc(-c3nc(NC(=O)Cc4ccc5ccccc5c4)sc3C)ccc21 [Compound 9]	5 to 25	< 5	–	–
Cc1ccc(CC(=O)Nc2nc(-c3ccc4c(c3)CCN4C(=O)c3ccccc3C)c(C)s2)cc1C [Compound 10]	> 25	5 to 25	–	–
CC(=O)Nc1nc(-c2ccc3c(c2)CCN3C(=O)c2ccccc2C)c(C)s1 [Compound 11]	< 5	5 to 25	–	–
Cc1ccccc1C(=O)N1CCc2cc(-c3nc(NC(=O)Cc4ccc(F)c(F)c4)sc3C)ccc21 [Compound 12]	< 5	< 5	–	–
Cc1ccccc1C(=O)N1CCc2cc(-c3nc(NC(=O)c4ccc5c(c4)OCO5)sc3C)ccc21 [Compound 13]	5 to 25	< 5	–	–
Cc1sc(NC(=O)Cc2ccc3c(c2)OCO3)nc1-c1ccc2c(c1)CCN2C(=O)c1ccccc1 [Compound 14]	–	–	5 to 25	< 5
O=C(Nc1ncc(Cc2ccc(C(F)(F)F)cc2)s1)c1ccco1 [Compound 15]	> 25	> 25	–	–
O=C(Nc1ncc(Cc2ccccc2)s1)c1ccc(-c2cccc([N+](=O)[O-])c2)o1 [Compound 16]	5 to 25	5 to 25	–	–
Cc1sc(NC(=O)Cc2ccc3c(c2)OCO3)nc1-c1ccc2c(c1)CCN2 [Compound 17, 2-(Benzo[d][1,3]dioxol-5-yl)-N-(4-(indolin-5-yl)-5-methylthiazol-2-yl)acetamide]	> 25	5 to 25	–	–
O=C(Nc1ncc(Cc2ccc(C(F)(F)F)cc2)s1)c1ccc(-c2ccccc2[N+](=O)[O-])o1 [Compound 18]	< 5	5 to 25	–	–
O=C(Nc1ncc(Cc2ccc(C(F)(F)F)cc2)s1)c1ccc(-c2ccccc2)o1 [Compound 19]	> 25	5 to 25	–	–
O=C(Nc1ncc(Cc2cccc(C(F)(F)F)c2)s1)c1ccc(-c2cccc([N+](=O)[O-])c2)o1 [Compound 20]	< 5	5 to 25	–	–
CC(=O)N1CCc2cc(-c3nc(NC(=O)Cc4ccc5c(c4)OCO5)sc3C)ccc21 [Compound 21]	5 to 25	< 5	–	–
O=C(Nc1ncc(Cc2ccc(C(F)(F)F)cc2)s1)c1ccc(-c2ccc([N+](=O)[O-])cc2)o1 [Compound 22]	5 to 25	5 to 25	–	–

Second part, the compound after the results:

IC50 [1, 3] [µM]	IC50 ([2]; Homo sapiens) [µM]	IC50 ([1]; H1437 NRF2-ARE-Fluc stable cell line) [µM]	IC50 [2] [µM]	SMILES
> 25	5 to 25	–	–	Cc1ccc(C(=O)N2CCc3cc(-c4nc(NC(=O)Cc5ccc6c(c5)OCO6)sc4C)ccc32)cc1 [Compound 23]
5 to 25	< 5	–	–	Cc1ccccc1S(=O)(=O)N1CCc2cc(-c3nc(NC(=O)Cc4ccc5c(c4)OCO5)sc3C)ccc21 [Compound 24]
< 5	5 to 25	–	–	Cc1sc(NC(=O)Cc2ccc3c(c2)OCO3)nc1-c1ccc2c(c1)CCN2C(=O)C1CCCCC1 [Compound 25]
> 25	5 to 25	–	–	Cc1sc(NC(=O)Cc2ccc3c(c2)OCO3)nc1-c1ccc2c(c1)CCN2C [Compound 26]
< 5	5 to 25	–	–	O=C(Nc1ncc(Cc2ccc(C(F)(F)F)cc2)s1)c1ccc(-c2cccnc2)o1 [Compound 27]
> 25	5 to 25	–	–	Cc1ccccc1C(=O)N1CCc2cc(-c3cccc(NC(=O)Cc4ccc5c(c4)OCO5)n3)ccc21 [Compound 28]
5 to 25	> 25	–	–	Cc1cccc(C(=O)N2CCc3cc(-c4nc(NC(=O)Cc5ccc6c(c5)OCO6)sc4C)ccc32)c1 [Compound 29]
5 to 25	5 to 25	–	–	Cc1ccccc1C(=O)n1ccc2cc(-c3nc(NC(=O)Cc4ccc5c(c4)OCO5)sc3C)ccc21 [Compound 30]
> 25	5 to 25	–	–	Cc1ccccc1C(=O)N1CCc2cc(-c3cccc(NC(=O)Cc4ccc5c(c4)OCO5)c3)ccc21 [Compound 31]
5 to 25	< 5	–	–	CCN(CC)S(=O)(=O)c1cccc(C(=O)Nc2ccc(C#N)cc2)c1 [Compound 32]
< 5	5 to 25	–	–	CCN(C1CCCCC1)S(=O)(=O)c1ccc(S(=O)(=O)NCc2ccncc2)cc1 [Compound 33]
5 to 25	< 5	–	–	O=C(Nc1ccc(S(=O)(=O)N2CCN(Cc3ccccc3)CC2)cc1)c1cnccn1 [Compound 34]
5 to 25	< 5	–	–	CC(=O)N1CCc2cc(S(=O)(=O)NCCC3=CCCCC3)ccc21 [Compound 35]
< 5	< 5	–	–	CC1CCCN(C(=O)c2ccc(S(=O)(=O)N3CCC(c4nc5ccccc5s4)CC3)cc2)C1 (stereo not drawn) [Compound 36]
< 5	< 5	–	–	CCN(CC)C(=O)c1ccc(S(=O)(=O)N2CCC(c3nc4ccccc4s3)CC2)cc1 [Compound 37]
< 5	< 5	–	–	O=C(Nc1ccc(S(=O)(=O)N2CCCCC2)cc1)c1ccc(CN2CCc3ccccc3C2)cc1 [Compound 38]
5 to 25	< 5	–	–	NC(=O)c1ccc(N2CCN(S(=O)(=O)c3ccccc3)CC2)c([N+](=O)[O-])c1 [Compound 39]
< 5	< 5	–	–	CCC(=O)N1c2ccc(S(=O)(=O)N3CCN(c4ccc([N+](=O)[O-])cc4)CC3)cc2CC1C (stereo not drawn) [Compound 40]
5 to 25	< 5	–	–	NC(=O)C1CCN(c2ccc(S(=O)(=O)N3CCC(Cc4ccccc4)CC3)cn2)CC1 [Compound 41]
< 5	< 5	–	–	COc1ccc(-c2cc(C)no2)cc1S(=O)(=O)N1CCN(c2ccc([N+](=O)[O-])cc2)CC1 [Compound 42]
< 5	5 to 25	–	–	Cc1csc2ncnc(N3CCN(S(=O)(=O)c4cccc(C(F)(F)F)c4)CC3)c12 [Compound 43]
5 to 25	5 to 25	–	–	Cc1ccccc1CCNC(=O)c1ccc(Cl)c(S(=O)(=O)N2CC(C)OC(C)C2)c1 (stereo not drawn) [Compound 44]
< 5	< 5	–	–	Cc1ccc(NC(=O)COc2ccccc2C(N)=O)cc1S(=O)(=O)N1CCCCCC1 [Compound 45]
5 to 25	< 5	–	–	Cc1ccc(NC(=O)c2ccc(S(=O)(=O)N(C)c3ccccc3)cc2)cc1S(=O)(=O)N1CCOCC1 [Compound 46]
5 to 25	5 to 25	–	–	O=C(Nc1cccc(Cc2ccccc2)c1)c1ccc(-c2cccc([N+](=O)[O-])c2)o1 [Compound 56]
> 25	> 25	–	–	O=C(Cc1ccccc1)Nc1cccc(-c2ccc3[nH]cnc3c2)n1 [Compound 57, N-(6-(1H-benzo[d]imidazol-5-yl)pyridin-2-yl)-2-phenylacetamide]
5 to 25	> 25	–	–	O=C(Nc1ncc(Cc2ccc(C(F)(F)F)cc2)s1)c1ccnc(-c2ccccc2)c1 [Compound 58]
> 25	5 to 25	–	–	O=C(Nc1ncc(Cc2ccc(C(F)(F)F)cc2)s1)c1cccc(-c2ccccc2)c1 [Compound 59]
< 5	< 5	–	–	Cc1ccccc1C(=O)N1CCc2cc(-c3nc(NC(=O)CC4CCN(C(=O)OC(C)(C)C)CC4)sc3C)ccc21 [Compound 60, tert-butyl 4-(2-((5-methyl-4-(1-(2-methylbenzoyl)indolin-5-yl)thiazol-2-yl)amino)-2-oxoethyl)piperidine-1-carboxylate]
